The values that follow come from ChEMBL document CHEMBL2169758, “Evaluation of new scaffolds of myeloperoxidase inhibitors by rational design combined with high-throughput virtual screening” (J Med Chem, 2012).

Assay [1] addresses T1, Myeloperoxidase (Homo sapiens, UniProt P05164).
T1 sequence (P05164 whole entry): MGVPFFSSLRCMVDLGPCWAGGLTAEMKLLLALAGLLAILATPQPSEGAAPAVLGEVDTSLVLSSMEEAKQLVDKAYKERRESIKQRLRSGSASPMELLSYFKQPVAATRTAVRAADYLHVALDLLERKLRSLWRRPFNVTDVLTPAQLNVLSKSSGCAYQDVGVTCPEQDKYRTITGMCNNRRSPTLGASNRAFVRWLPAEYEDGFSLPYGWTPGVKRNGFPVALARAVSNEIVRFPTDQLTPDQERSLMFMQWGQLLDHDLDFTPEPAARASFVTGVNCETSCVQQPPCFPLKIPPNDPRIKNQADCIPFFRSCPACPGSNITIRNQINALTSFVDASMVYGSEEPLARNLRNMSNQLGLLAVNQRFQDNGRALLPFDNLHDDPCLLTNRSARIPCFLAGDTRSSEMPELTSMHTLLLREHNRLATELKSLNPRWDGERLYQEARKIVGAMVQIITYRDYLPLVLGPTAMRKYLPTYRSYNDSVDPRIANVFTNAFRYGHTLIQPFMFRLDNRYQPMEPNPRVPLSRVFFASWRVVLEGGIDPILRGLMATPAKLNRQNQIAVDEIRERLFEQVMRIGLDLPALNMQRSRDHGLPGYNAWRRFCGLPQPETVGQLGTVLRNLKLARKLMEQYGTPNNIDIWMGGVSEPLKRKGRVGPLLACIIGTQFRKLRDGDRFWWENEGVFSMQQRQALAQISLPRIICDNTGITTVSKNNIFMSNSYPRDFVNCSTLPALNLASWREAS
The experiment in a line: Inhibition of recombinant human myeloperoxidase assessed as taurine chloramine production after 5 mins by spectrophotometry in presence of H2O2. It is filed as single protein.

In assay [2] the target is T2, Myeloperoxidase (Homo sapiens) (UniProt P05164).
T2 sequence (whole entry): T1 sequence (P05164 whole entry)
Briefly: Inhibition of human recombinant myeloperoxidase-mediated Apo B-100 oxidation on LDL at 1.25 uM after 5 min by ELISA. Background: An ELISA detects its analyte on a solid surface through an enzyme-linked reagent.

The target in assay [3] is T2, Myeloperoxidase (Homo sapiens). Briefly: Inhibition of human recombinant myeloperoxidase assessed as compound 1 formation by spectrophotometry in presence of H2O2.
Assay [4] shares this target. Briefly: Inhibition of human recombinant myeloperoxidase-mediated Apo B-100 oxidation on LDL at 5 uM after 5 min by ELISA.
For assay [5] the target is unchanged. Briefly: Inhibition of human recombinant myeloperoxidase-mediated Apo B-100 oxidation on LDL at 50 uM after 5 min by ELISA.
The target of assay [6] is T1, Myeloperoxidase. Briefly: Inhibition of myeloperoxidase.
The target of assay [7] is T1, Myeloperoxidase. The experiment in a line: Inhibition of recombinant human myeloperoxidase.
In assay [8] the target is T1, Myeloperoxidase. The experiment in a line: Binding affinity to recombinant human myeloperoxidase.
Assay [9] has as its target T2, Myeloperoxidase (Homo sapiens). Briefly: Inhibition of human recombinant myeloperoxidase assessed as compound 2 formation by spectrophotometry in presence of H2O2.
For assay [10] the target is unchanged. Briefly: Ratio of apparent rate constant of compound 1 formation to apparent rate constant of compound 2 formation for human recombinant myeloperoxidase.

Active and inactive are the calls of the source. The calls are words filed in the database; no cut-off is given here.

One may read the IC50 as the concentration at which inhibition is half-maximal. Broadly, the inhibition is how much of the control response was suppressed. For the compound `COc1cc(-c2nc(-c3ccccc3)c(-c3ccccc3)[nH]2)ccc1OCC(=O)O`, the IC50 on Myeloperoxidase [1] was determined as 970 nM. The inhibition entry in assay [2], in assay [4] and in assay [5] was “inactive” throughout. In assay [3], the Rate constant for compound I formation was 1.9 ×10⁶ /M/s.

In the case of `CC(C)CN1C(=O)C2=NC=NC2=NC1=S`, on Myeloperoxidase [6], the IC50 stood at 870 nM.

Take `Oc1ccccc1CN1CCCN(Cc2ccccc2O)C1`: at Myeloperoxidase [1], the IC50 was determined as 500 nM. The inhibition amounted to 62% in assay [2], 4.5% in assay [4] and 11% in assay [5]. Besides, in assay [3], the Rate constant for compound I formation was determined as 5.1 ×10⁶ /M/s.

A word on the Kd: it is the equilibrium constant for the complex coming apart. For the compound `O=C(NO)c1ccccc1O` [SALICYLHYDROXAMIC ACID], on Myeloperoxidase [7], the 50% inhibitory concentration (IC50) stood at 3000 nM. Moreover, the Kd on Myeloperoxidase [8] was 2000 nM.

For the compound `C(=N\Nc1nc2ccccc2[nH]1)/c1c[nH]c2ccccc12`, the IC50 at Myeloperoxidase [1] was found to be 12000 nM. Moreover, the inhibition result in assay [2], in assay [4] and in [5] was “inactive” each time. In [3], the Rate constant for compound I formation came out at 4.1 ×10⁷ /M/s.

In the case of `Cn1c(=O)[nH]c(=O)c2c1nc(NCCN)n2CCCOc1ccccc1`, the Activity in assay [9] was 210 M⁻¹ s⁻¹. The IC50 on Myeloperoxidase [1] worked out at 460 nM. Besides, the Ratio in assay [10] came out at 24300. The inhibition in assay [2] came to 11%; in [4], 2.6%; in [5] it was 6%. Moreover, in assay [3], the Rate constant for compound I formation amounted to 5.1 ×10⁶ /M/s.

As for `NCCc1c[nH]c2ccc(F)cc12`, the IC50 at Myeloperoxidase [7] turned out to be 790 nM.

Regarding `CS(=O)(=O)Nc1ccc([N+](=O)[O-])cc1Oc1ccccc1` [NIMESULIDE], at Myeloperoxidase [7], the IC50 was 2100 nM.

With `O=c1c(O)c(-c2ccc(O)c(O)c2)oc2cc(O)cc(O)c12` [QUERCETIN], the IC50 against Myeloperoxidase [6] is 1270 nM.

On Myeloperoxidase [6], `CCC1=CCCc2cc(OC)ccc21` came in with an IC50 of 3000 nM.

With `COc1ccc2cc(CN(Cc3ccc(F)cc3)C(=S)NCCCN(C)C)c(O)nc2c1`, the inhibition result in assay [2], in assay [4] and in assay [5] was “inactive” in each case. In addition, the Rate constant for compound I formation in assay [3] was 9.36 ×10⁵ /M/s.

As to `COc1ccc2cc(CN(Cc3ccc(F)cc3)C(=S)NCCCN(C)C)c(=O)[nH]c2c1`, the IC50 on Myeloperoxidase [1] is 3800 nM.

For `NC1=Nc2nc3ccccc3n2C(c2ccc(OCC(=O)O)cc2)N1` (stereo not given), on Myeloperoxidase [1], the IC50 turned out to be 3700 nM. The inhibition entry in [2], in assay [4] and in [5] was “inactive” in each case. In addition, the Rate constant for compound I formation in [3] is 6.8 ×10⁵ /M/s.

`COc1ccccc1N1CCN(C(=O)CSc2ncccc2-c2nc3ccccc3[nH]2)CC1`: the IC50 at Myeloperoxidase [1] is 6200 nM. Moreover, the inhibition entry in [2], in [4] and in assay [5] was “inactive” each time.

`COc1cc(OC)c(C2N=C(N)Nc3nc4ccccc4n32)cc1OC` (stereo not given): the Activity in assay [9] was determined as 1.1 M⁻¹ s⁻¹. In addition, the IC50 on Myeloperoxidase [1] was 3500 nM. Besides, the Ratio in [10] stood at 1.27e+06. Besides, the inhibition entry in [2], in [4] and in [5] was “inactive” throughout. For the same compound, in assay [3], the Rate constant for compound I formation is 1.4 ×10⁶ /M/s.
